Test results: patent publication US10654853B2, “Spiro-condensed pyrrolidine derivatives as deubiquitylating enzymes (DUB) inhibitors” (MISSION THERAPEUTICS LIMITED, priority 2016, dated 2020)

Target: Cezanne 1 (Homo sapiens (Human), UniProt Q6GQQ9)
Assay: Cezanne 1 biochemical IC50 assay (fluorescence polarisation, TAMRA labelled peptide linked to ubiquitin)
Details: not given
Method: The Cezanne 1 construct was PCR amplified and cloned into a pFLAG-CMV-6c vector (Sigma-Aldrich) with an N-terminal FLAG tag. HEK293T cells were transfected with FLAG-Cezanne 1 using TransIT-LT1 transfection reagent (Mirus) according to the manufacturer's instructions. Cells were harvested 48 hours after transfection. […] The resin was washed two times with low salt buffer and one time with high salt buffer (20 mM Tris, pH 7.5, 500 mM NaCl, 0.5 mM EDTA, 5 mM beta-mercaptoethanol, protease inhibitors (complete mini, Roche) and phosphatase inhibitors (PhosSTOP mini, Roche). To elute the bound Cezanne 1, elution buffer (10 mM Tris, pH 7.5, 150 mM NaCl, 0.5 mM EDTA, 10% glycerol, 0.5% NP40, 5 mM beta-mercaptoethanol, 0.15 mg/ml 3× FLAG peptide (Sigma-Aldrich)) was added to the resin and incubated at 4° C. for 2.5 hours while rotating. The resin was centrifuged at 4000 rpm for 30 seconds, and the supernatant containing purified FLAG-Cezanne 1 was removed and stored at −80° C. […] Dilution plates were prepared at 21 times the final concentration (2100 μM for a final concentration of 100 μM) in 50% DMSO in a 96-well polypropylene V-bottom plate (Greiner #651201). […] Reactions were performed in duplicate in black 384 well plates (small volume, Greiner 784076) in a final reaction volume of 21 μl. Either 1 μl of 50% DMSO or diluted compound was added to the plate. Cezanne 1 was diluted in reaction buffer (40 mM Tris, pH 7.5, 0.005% Tween 20, 0.5 mg/ml BSA, 5 mM—beta-mercaptoethanol) to the equivalent of 0.005 μl/well and 10 μl of diluted Cezanne 1 was added to the compound. Enzyme and compound were incubated for 30 min at room temp. Reactions were initiated by the addition of 50 nM of TAMRA labelled peptide linked to ubiquitin via an iso-peptide bond as fluorescence polarisation substrate. Reactions were read immediately after addition of substrate and following a 2 hr incubation at room temperature. Readings were performed on a Pherastar Plus (BMG Labtech). λ Excitation 540 nm; λ Emission 590 nm.

Cezanne 1, sequence (Q6GQQ9 whole entry): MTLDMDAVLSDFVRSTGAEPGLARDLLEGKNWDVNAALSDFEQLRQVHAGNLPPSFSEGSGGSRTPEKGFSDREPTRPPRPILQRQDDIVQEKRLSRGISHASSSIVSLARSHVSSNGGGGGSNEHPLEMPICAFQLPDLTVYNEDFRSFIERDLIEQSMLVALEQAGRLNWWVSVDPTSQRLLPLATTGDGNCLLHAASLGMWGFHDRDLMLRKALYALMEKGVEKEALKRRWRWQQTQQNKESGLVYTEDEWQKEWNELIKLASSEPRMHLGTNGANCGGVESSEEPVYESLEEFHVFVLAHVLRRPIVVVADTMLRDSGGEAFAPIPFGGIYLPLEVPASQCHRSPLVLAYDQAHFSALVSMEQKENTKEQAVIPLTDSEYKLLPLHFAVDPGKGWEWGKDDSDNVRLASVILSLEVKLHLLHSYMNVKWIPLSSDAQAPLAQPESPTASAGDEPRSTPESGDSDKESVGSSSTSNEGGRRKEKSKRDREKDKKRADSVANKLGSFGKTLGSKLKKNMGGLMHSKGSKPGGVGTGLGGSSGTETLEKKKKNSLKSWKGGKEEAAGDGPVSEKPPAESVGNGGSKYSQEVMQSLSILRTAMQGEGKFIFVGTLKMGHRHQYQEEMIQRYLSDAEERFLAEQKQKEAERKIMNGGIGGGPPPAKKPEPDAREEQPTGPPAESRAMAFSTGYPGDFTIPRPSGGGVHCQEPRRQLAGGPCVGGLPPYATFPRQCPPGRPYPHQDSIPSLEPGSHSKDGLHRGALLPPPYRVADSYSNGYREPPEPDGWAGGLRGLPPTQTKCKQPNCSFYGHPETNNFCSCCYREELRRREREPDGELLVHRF

Row | Compound | IC50 [µM]
1 | COc1ccc2c(c1)NC(=O)C1(CCN(C#N)C1)C2 (stereo not drawn) [Example 3, 7′-Methoxy-2′-oxo-1′,4′-dihydro-2′H-spiro[pyrrolidine-3,3′-quinoline]-1-carbonitrile] | 1 to 10

Same assay, conditions: Cezanne 1 biochemical IC50 assay; 30 min pre-incubation, read after 2 hr at room temperature; read-out: IC50 range

Row | IC50 [µM] | Compound
2 | < 0.1 | N#CN1CCC2(C1)Oc1ncc(-c3cccc4[nH]ncc34)cc1NC2=O (stereo not drawn) [Example 135, 7-(1H-Indazol-4-yl)-2-oxo-1,2-dihydrospiro[pyrido[2,3-b][1,4]oxazine-3,3′-pyrrolidine]-1′-carbonitrile]
3 | 0.1 to 1 | Cc1nc2cc(-c3ccc4c(c3)NC(=O)C3(CCN(C#N)C3)C4)ccc2s1 (stereo not drawn) [Example 40, 7′-(2-Methylbenzo[d]thiazol-5-yl)-2′-oxo-1′,4′-dihydro-2′H-spiro[pyrrolidine-3,3′-quinoline]-1-carbonitrile]
4 | 1 to 10 | N#CN1CCC2(C1)Nc1nc(C(F)(F)F)ccc1NC2=O (stereo not drawn) [Example 56, 2-Oxo-6-(trifluoromethyl)-1,4-dihydro-2H-spiro[pyrido[2,3-b]pyrazine-3,3′-pyrrolidine]-1′-carbonitrile]
5 | 0.1 to 1 | N#CN1CCC2(Cc3cc(-c4ccc(CN5CCOCC5)cc4)ccc3NC2=O)C1 (stereo not drawn) [Example 129, 6′-(4-(Morpholinomethyl)phenyl)-2′-oxo-1′,4′-dihydro-2′H-spiro[pyrrolidine-3,3′-quinoline]-1-carbonitrile]
6 | 0.1 to 1 | N#CN1CCC2(C1)Oc1ncc(-c3cccc(F)c3)cc1NC2=O (stereo not drawn) [Example 53, 7-(3-Fluorophenyl)-2-oxo-1,2-dihydrospiro[pyrido[2,3-b][1,4]oxazine-3,3′-pyrrolidine]-1′-carbonitrile]
7 | 0.1 to 1 | N#CN1CC[C@@]2(C1)Nc1ncccc1NC2=O [Example 66, (S)-2-Oxo-1,4-dihydro-2H-spiro[pyrido[2,3-b]pyrazine-3,3′-pyrrolidine]-1′-carbonitrile]
8 | 1 to 10 | N#CN1CCC2(Cc3ccc(-c4cccc(N5CCCCC5)c4)cc3NC2=O)C1 (stereo not drawn) [Example 35, 2′-Oxo-7′-(3-(piperidin-1-yl)phenyl)-1′,4′-dihydro-2′H-spiro[pyrrolidine-3,3′-quinoline]-1-carbonitrile]
9 | 0.1 to 1 | N#CN1CCC2(C1)Oc1nc(-c3cccc4[nH]ncc34)ccc1NC2=O (stereo not drawn) [Example 139, 6-(1H-Indazol-4-yl)-2-oxo-1,2-dihydrospiro[pyrido[2,3-b][1,4]oxazine-3,3′-pyrrolidine]-1′-carbonitrile]
10 | 0.1 to 1 | N#Cc1cccc(-c2cnc3c(c2)NC(=O)C2(CCN(C#N)C2)O3)c1 (stereo not drawn) [Example 51, 7-(3-Cyanophenyl)-2-oxo-1,2-dihydrospiro[pyrido[2,3-b][1,4]oxazine-3,3′-pyrrolidine]-1′-carbonitrile]
11 | 0.1 to 1 | N#Cc1cccc(-c2cnc3c(c2)NC(=O)[C@@]2(CCN(C#N)C2)N3)c1 [Example 75, (S)-7-(3-Cyanophenyl)-2-oxo-1,4-dihydro-2H-spiro[pyrido[2,3-b]pyrazine-3,3′-pyrrolidine]-1′-carbonitrile]
12 | 0.1 to 1 | CC1(c2ccccc2)NC(=O)C2(CCN(C#N)C2)NC1=O (stereo not drawn) [Example 87, 8-Methyl-7,10-dioxo-8-phenyl-2,6,9-triazaspiro[4.5]decane-2-carbonitrile]
13 | 0.1 to 1 | Cc1noc(C)c1-c1ccc2c(c1)CC1(CCN(C#N)C1)C(=O)N2 (stereo not drawn) [Example 124, 6′-(3,5-Dimethylisoxazol-4-yl)-2′-oxo-1′,4′-dihydro-2′H-spiro[pyrrolidine-3,3′-quinoline]-1-carbonitrile]
14 | 0.1 to 1 | N#CN1CCC2(Cc3cc(-c4cccc(OC(F)(F)F)c4)ccc3NC2=O)C1 (stereo not drawn) [Example 95, 2′-Oxo-6′-(3-(trifluoromethoxy)phenyl)-1′,4′-dihydro-2′H-spiro[pyrrolidine-3,3′-quinoline]-1-carbonitrile]
15 | 0.1 to 1 | CC(C)Oc1ccc(F)cc1-c1ccc2c(c1)NC(=O)C1(CCN(C#N)C1)C2 (stereo not drawn) [Example 21, 7′-(5-Fluoro-2-isopropoxyphenyl)-2′-oxo-1′,4′-dihydro-2′H-spiro[pyrrolidine-3,3′-quinoline]-1-carbonitrile]
16 | 0.1 to 1 | N#Cc1ccc(-c2cnc3c(c2)NC(=O)C2(CCN(C#N)C2)O3)cc1 (stereo not drawn) [Example 50, 7-(4-Cyanophenyl)-2-oxo-1,2-dihydrospiro[pyrido[2,3-b][1,4]oxazine-3,3′-pyrrolidine]-1′-carbonitrile]
17 | 0.1 to 1 | N#Cc1cccc(-c2ccc3c(c2)CC2(CCN(C#N)C2)C(=O)N3)c1 (stereo not drawn) [Example 43, 6′-(3-Cyanophenyl)-2′-oxo-1′,4′-dihydro-2′H-spiro[pyrrolidine-3,3′-quinoline]-1-carbonitrile]
18 | 0.1 to 1 | N#CN1CCC2(Cc3cc(-c4cncnc4)ccc3NC2=O)C1 (stereo not drawn) [Example 111, 2′-Oxo-6′-(pyrimidin-5-yl)-1′,4′-dihydro-2′H-spiro[pyrrolidine-3,3′-quinoline]-1-carbonitrile]
19 | 0.1 to 1 | Cc1nc2cc(-c3ccc4c(c3)CC3(CCN(C#N)C3)C(=O)N4)ccc2s1 (stereo not drawn) [Example 123, 6′-(2-Methylbenzo[d]thiazol-5-yl)-2′-oxo-1′,4′-dihydro-2′H-spiro[pyrrolidine-3,3′-quinoline]-1-carbonitrile]
20 | 0.1 to 1 | N#CN1CCC2(C1)Nc1ncc(-c3ccccc3)cc1NC2=O (stereo not drawn) [Example 57, 2-Oxo-7-phenyl-1,4-dihydro-2H-spiro[pyrido[2,3-b]pyrazine-3,3′-pyrrolidine]-1′-carbonitrile]
21 | 1 to 10 | N#CN1CCC2(C1)Oc1nc(C(=O)Nc3ccc(F)cc3)ccc1NC2=O (stereo not drawn) [Example 141, 1′-Cyano-N-(4-fluorophenyl)-2-oxo-1,2-dihydrospiro[pyrido[2,3-b][1,4]oxazine-3,3′-pyrrolidine]-6-carboxamide]
22 | 1 to 10 | Cc1n[nH]c(C)c1-c1ccc2c(c1)NC(=O)C1(CCN(C#N)C1)C2 (stereo not drawn) [Example 33, 7′-(3,5-Dimethyl-1H-pyrazol-4-yl)-2′-oxo-1′,4′-dihydro-2′H-spiro[pyrrolidine-3,3′-quinoline]-1-carbonitrile]
23 | 1 to 10 | N#CN1CCC2(Cc3ccc(-c4cccc(OC(F)(F)F)c4)cc3NC2=O)C1 (stereo not drawn) [Example 88, 2′-Oxo-7′-(3-(trifluoromethoxy)phenyl)-1′,4′-dihydro-2′H-spiro[pyrrolidine-3,3′-quinoline]-1-carbonitrile]
24 | 0.1 to 1 | Cc1ccc2[nH]ncc2c1-c1ccc2c(c1)NC(=O)[C@@]1(CCN(C#N)C1)C2 [Example 132, (R)-7′-(5-Methyl-H-indazol-4-yl)-2′-oxo-1′,4′-dihydro-2′H-spiro[pyrrolidine-3,3′-quinoline]-1-carbonitrile]
25 | 0.1 to 1 | CC(=O)Nc1cccc(-c2ccc3c(c2)CC2(CCN(C#N)C2)C(=O)N3)c1 (stereo not drawn) [Example 112, N-(3-(1-Cyano-2′-oxo-1′,4′-dihydro-2′H-spiro[pyrrolidine-3,3′-quinolin]-6′-yl)phenyl)acetamide]
26 | 0.1 to 1 | N#CN1CCC2(Cc3ccc(-c4cncnc4)cc3NC2=O)C1 (stereo not drawn) [Example 28, 2′-Oxo-7′-(pyrimidin-5-yl)-1′,4′-dihydro-2′H-spiro[pyrrolidine-3,3′-quinoline]-1-carbonitrile]
27 | 1 to 10 | N#CN1CCC2(C1)Nc1ncccc1NC2=O (stereo not drawn) [Example 55, 2-Oxo-1,4-dihydro-2H-spiro[pyrido[2,3-b]pyrazine-3,3′-pyrrolidine]-1′-carbonitrile]
28 | 0.1 to 1 | N#CN1CCC2(CNc3ncccc3NC2=O)C1 (stereo not drawn) [Example 86, 2-Oxo-1,2,4,5-tetrahydrospiro[pyrido[2,3-b][1,4]diazepine-3,3′-pyrrolidine]-1′-carbonitrile]
29 | 0.1 to 1 | N#CN1CCC2(C1)Oc1ncc(-c3ccccc3)cc1NC2=O (stereo not drawn) [Example 49, 2-Oxo-7-phenyl-1,2-dihydrospiro[pyrido[2,3-b][1,4]oxazine-3,3′-pyrrolidine]-1′-carbonitrile]
30 | 1 to 10 | Cn1cc(-c2ccc3c(c2)NC(=O)C2(CCN(C#N)C2)C3)cn1 (stereo not drawn) [Example 12, 7′-(1-Methyl-1H-pyrazol-4-yl)-2′-oxo-1′,4′-dihydro-2′H-spiro[pyrrolidine-3,3′-quinoline]-1-carbonitrile]

Row | Compound | IC50 [µM]
31 | CN1CCN(c2ccc(-c3ccc4c(c3)NC(=O)C3(CCN(C#N)C3)C4)cc2)CC1 (stereo not drawn) [Example 19, 7′-(4-(4-Methylpiperazin-1-yl)phenyl)-2′-oxo-1′,4′-dihydro-2′H-spiro[pyrrolidine-3,3′-quinoline]-1-carbonitrile] | 0.1 to 1
32 | CN(C)C(=O)c1ccc(-c2ccc3c(c2)CC2(CCN(C#N)C2)C(=O)N3)cc1 (stereo not drawn) [Example 110, 4-(1-Cyano-2′-oxo-1′,4′-dihydro-2′H-spiro[pyrrolidine-3,3′-quinolin]-6′-yl)-N,N-dimethylbenzamide] | 0.1 to 1
33 | CN(C)C(=O)c1ccc(-c2ccc3c(c2)NC(=O)C2(CCN(C#N)C2)C3)cc1 (stereo not drawn) [Example 89, 4-(1-Cyano-2′-oxo-1′,4′-dihydro-2′H-spiro[pyrrolidine-3,3′-quinolin]-7′-yl)-N,N-dimethylbenzamide] | 1 to 10
